Data reported in PMC3049593 (British Journal of Cancer, 2011).

Tests used:
[1] = tested on: Lewis Lung Carcinoma (LL/2) tumour angiogenesis; assay: CD31 staining of primary LL/2 tumours; assay type: in vivo, mice
Protocol: Angiogenesis in vivo was evaluated using the Angiosponge model in which subcutaneously implanted, agarose-captured FGF2 gelfoam sterile sponges (Pfizer, West Ryde, Australia) induces vascularisation over a 10-day period responsive to angiogenesis inhibition as determined by the number of vessels with identifiable lumen that stained positive for CD31/PECAM-1, an antigen present specifically on endothelial cells ([McCarty et al, 2002]). PG545 was administered s.c. on the flank distal to the AngioSponge implant. This method was also used to examine five medium-sized primary tumours from each group of Lewis Lung Carcinoma (LL/2)-bearing mice.
(§1) In the orthotopic Hep3b2.1-7 human liver cancer model, treatment of mice (n=10) began 14 days after inoculation of 2.5 × 10^6 cells. […] To initiate tumour xenografts, MDA-MB-231, PC3, Cal27 and HepG2 cells were injected s.c. into nude mice (n=8) at 4, 5, 2 and 2 × 10^7 cells ml^−1, respectively. […] In the B16F0 lung metastasis model, 2 × 10^5 cells were injected via the tail vein of C57Bl6 mice (n=8). […] Surface lung macrometastases were counted for each group (n=9) upon study termination. […] Solid tumours were measured in two dimensions (length and width) and the tumour volume (cm^3) was calculated using the equation: V=length × width^2 × π/6. The anti-tumour activity was expressed as percent tumour growth inhibition (%TGI). […]

MDA-MB-231 tumours = assay: MDA-MB-231 breast xenograft model; assay type: in vivo, nude mice
Protocol: as §1, with “termination. In the intrasplenic HT-29 xenograft model, 1 × 10^6 cells in 100 μl were injected into the spleen.” for “termination.”, “(%TGI). Further details are available in Supplementary Methods.” for “(%TGI).”
antibody. […]
staining. For quantification, three independent visual fields (20x magnification) were chosen and positive stained spots or vessels with identifiable lumen were counted.
Angiogenesis inhibition and induction were calculated using the equations: […]
regimen both before and after tumour cell inoculation (days -6, -3, 0, +3, +6) or only after tumour cell inoculation (days 0, +3, +6). B16 cell (2x105) were inoculated via tail vein injections and mice were culled and assessed for lung metastases on day 12. […]

HepG2 cells = assay: in vitro cytotoxicity (LC50); assay type: cell-based; conditions: read-out: LC50 (concentration lethal to 50% of cells)

CC(C)CCC[C@@H](C)[C@H]1CCC2C3CCC4C[C@@H](O[C@@H]5O[C@H](COS(=O)(=O)[O-])[C@@H](O[C@H]6O[C@H](COS(=O)(=O)[O-])[C@@H](O[C@H]7O[C@H](COS(=O)(=O)[O-])[C@@H](O[C@H]8O[C@H](COS(=O)(=O)[O-])[C@@H](OS(=O)(=O)[O-])[C@H](OS(=O)(=O)[O-])[C@H]8OS(=O)(=O)[O-])[C@H](OS(=O)(=O)[O-])[C@H]7OS(=O)(=O)[O-])[C@H](OS(=O)(=O)[O-])[C@H]6OS(=O)(=O)[O-])[C@H](OS(=O)(=O)[O-])[C@H]5OS(=O)(=O)[O-])CC[C@]4(C)C3CC[C@@]21C.[Na+].[Na+].[Na+].[Na+].[Na+].[Na+].[Na+].[Na+].[Na+].[Na+].[Na+].[Na+].[Na+] (some centres unmarked) [PG545]
decrease in CD31 endothelial staining in tumours ([1]; 20 mg kg^−1 once-weekly s.c.): 30% | decrease in CD31 endothelial staining in tumours ([1]; 40 mg kg^−1 once-weekly s.c.): 22% | TGI (MDA-MB-231 tumours; 30 mg kg^−1 once-weekly s.c.): 69% | TGI (MDA-MB-231 tumours; 30 mg kg^−1 twice-weekly s.c.): 59% | CC50 (HepG2 cells): > 100 µM
